Among the test systems are CCRF-CEM leukemia; HCC-2998 colon; HCT-116 colon; HL-60(TB) leukemia; HOP-92 NSCLC; HT29 colon; M19-MEL melanoma; MDA-N; MOLT-4 leukemia; NCI-H226 lung; OVCAR-3 ovarian.
Common to all, as to assay: inhibition of tumour cell growth, NCI panel, 48 h

SMILES strings stand for the structures.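 Step 1: Grow cells in 96-well plates. Step 2: Expose to compound for 48 hours at 5 concentrations. Step 3: Interpolate endpoints linearly; if unreached, use highest concentration. TGI is the concentration that stops growth completely.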

`O=[N+]([O-])c1ccc2c(Nc3ccccc3-c3ccccc3Nc3c4ccccc4nc4cc([N+](=O)[O-])ccc34)c3ccccc3nc2c1`: the TGI with CCRF-CEM leukemia is 37.6 µM; with HCC-2998 colon it was 16.6 µM; in the assay with HCT-116 colon, 6.38 µM; in the assay on HL-60(TB) leukemia, 15.1 µM; in the assay on HOP-92 NSCLC, 24.4 µM; in the assay with HT29 colon, 26.7 µM. Further, the TGI in the assay with M19-MEL melanoma was 19.8 µM; with MDA-N, 3.29 µM; in the assay with MOLT-4 leukemia, 50.4 µM; in the assay on NCI-H226 lung, 32.4 µM; with OVCAR-3 ovarian, 29.1 µM.

Turning to `COC1=CC(=O)c2c(O)c3c(c(O)c2C1=O)C[C@](C)(O)C[C@@H]3O`, the TGI was 33.9 µM in the assay with CCRF-CEM leukemia; 10.7 µM in the assay on HCC-2998 colon; 8.94 µM in the assay with HCT-116 colon; 7.91 µM with HL-60(TB) leukemia; 22.6 µM in the assay with HOP-92 NSCLC; 8.05 µM with HT29 colon. Also, the TGI is 0.73 µM in the assay with M19-MEL melanoma; 3.35 µM with MDA-N; 31.4 µM in the assay with MOLT-4 leukemia; 45.6 µM in the assay on NCI-H226 lung; 5.29 µM with OVCAR-3 ovarian.

Source of the values: PubChem BioAssay (NCI).
